Measured values taken from patent publication US6469040B2, “Method of using cyclooxygenase-2 inhibitors in the treatment and prevention of neoplasia” (G.D. Searle & Co., priority 1997, dated 2002).

Columns and labels:
[1] = system: Lewis Lung carcinoma cells; conditions: CTX 50 mg/kg injected on days 5, 7 and 9
Protocol: Lewis Lung carcinoma cells (2.5×10^6 cells) prepared from a brei carried in C57BL/6 mice were injected subcutaneously into the hind legs of mice. […] Cyclophosphamide (CTX) was injected to mice on days 5,7 and 9 after the implantation of the tumor at a dose of 50 mg/kg. Tumor volume was determined during the study. The % inhibition was calculated as above.

PC-3 cells = assay: PC-3 human prostate cancer cell tumors in nude mice; format: in vivo; conditions: 20 mg/kg/day in water from day 28, after 45 days
Protocol: (§1) Two human prostate cancer cell lines (PC-3 and LNCaP) were obtained (ATCC) to determine the efficacy of cyclooxygenase-2 inhibitors to inhibit tumor growth in a therapeutic model. In addition, the LNCaP cell line secretes prostate serum antigen (PSA) when grown in nude mice.
PC-3 cells (10^6 cells/0.2 ml of 30% matrigel) in RPMI 1640 medium was injected on the back of nude mice. […] After 45 days, PGE2 and TXB2 were measured.

LNCaP = LNCaP human prostate cancer cell tumors in nude mice; format: in vivo; conditions: 6 mg/kg/day in drinking water
Description: as §1
PSA level was reduced to approximately 50% as judged by western blotting.

O=P1(N(CCCl)CCCl)NCCCO1 (centres unmarked) [CTX, Cyclophosphamide]
Tumor Volume (Day 22) % Inhibition [1]: 57%

NS(=O)(=O)c1ccc(-n2nc(C(F)F)cc2-c2ccc(Cl)cc2)cc1 [COX-2 inhibitor, 4-[5-(4-chlorophenyl)-3-(difluoromethyl)-1H-pyrazol-1-yl]benzenesulfonamide]
PGE2 level reduction (PC-3 cells): 80-90%
TXB2 level reduction (PC-3 cells): 80-90%
inhibition of growth of the tumor (LNCaP; day 58): 55%
PSA level reduced to (LNCaP; judged by western blotting): approximately 50%
